Measurements: the supplement of paper PMC10307832

Key:
Experiment in all cases: relative viability (nuclei count vs DMSO), 5 days (fraction); higher = more cells survive
IU1-47 + Bortezomib = compound: CC1=CC(=C(N1C2=CC=C(C=C2)Cl)C)C(=O)CN3CCCCC3 [IU1-47] + CC(C)C[C@H](NC(=O)[C@H](Cc1ccccc1)NC(=O)c1cnccn1)B(O)O [Bortezomib] (partner 0.002 µM)
Procedure, shortened: (§1)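 For relative viability, nuclei counts in treated wells were divided by those in vehicle wells. Lung cancer cell lines had been pin-tool dosed in 1536-well plates the day after seeding and cultured for 5 days, then fixed and stained in one step (final 0.05% Triton X-100, 1% formaldehyde, 1 ug/ml Hoechst) and imaged at 4×. Doses were one drug alone or a fixed anchor-drug dose plus five library-drug doses (not always all listed) in √10 steps, and values are duplicate-plate medians.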

IU1-47 + Luminespib = compound: CC1=CC(=C(N1C2=CC=C(C=C2)Cl)C)C(=O)CN3CCCCC3 [IU1-47] + CCNC(=O)c1noc(-c2cc(C(C)C)c(O)cc2O)c1-c1ccc(CN2CCOCC2)cc1 [Luminespib] (partner 0.01 µM)
Procedure, shortened: as §1

IU1-47 + Pemetrexed = compound: CC1=CC(=C(N1C2=CC=C(C=C2)Cl)C)C(=O)CN3CCCCC3 [IU1-47] + Nc1nc2[nH]cc(CCc3ccc(C(=O)N[C@@H](CCC(=O)O)C(=O)O)cc3)c2c(=O)[nH]1 [Pemetrexed] (partner 0.2 µM)
Procedure, shortened: as §1

FG-4592 + Tozasertib = compound: Cc1nc(C(=O)NCC(=O)O)c(O)c2ccc(Oc3ccccc3)cc12 [FG-4592] + Cc1cc(Nc2cc(N3CCN(C)CC3)nc(Sc3ccc(NC(=O)C4CC4)cc3)n2)n[nH]1 [Tozasertib] (partner 0.1 µM)
Procedure, shortened: as §1

## UMC-11
IU1-47 + Bortezomib; first compound 0.08 µM
  relative viability: 0.653
IU1-47 + Bortezomib; first compound 0.253 µM
  relative viability: 0.618
IU1-47 + Bortezomib; first compound 0.8 µM
  relative viability: 0.673
IU1-47 + Bortezomib; first compound 2.53 µM
  relative viability: 1.04
IU1-47 + Bortezomib; first compound 8 µM
  relative viability: 0.575
IU1-47 + Luminespib; first compound 0.08 µM
  relative viability: 1.08
IU1-47 + Luminespib; first compound 0.253 µM
  relative viability: 0.974
IU1-47 + Luminespib; first compound 0.8 µM
  relative viability: 1.09
IU1-47 + Luminespib; first compound 2.53 µM
  relative viability: 1.06
IU1-47 + Luminespib; first compound 8 µM
  relative viability: 0.938
IU1-47 + Pemetrexed; first compound 0.08 µM
  relative viability: 0.777
IU1-47 + Pemetrexed; first compound 0.253 µM
  relative viability: 0.716
IU1-47 + Pemetrexed; first compound 0.8 µM
  relative viability: 0.811
IU1-47 + Pemetrexed; first compound 2.53 µM
  relative viability: 0.903
IU1-47 + Pemetrexed; first compound 8 µM
  relative viability: 0.796
FG-4592 + Tozasertib; first compound 0.08 µM
  relative viability: 0.217
FG-4592 + Tozasertib; first compound 0.253 µM
  relative viability: 0.184
FG-4592 + Tozasertib; first compound 0.8 µM
  relative viability: 0.199
FG-4592 + Tozasertib; first compound 2.53 µM
  relative viability: 0.203
FG-4592 + Tozasertib; first compound 8 µM
  relative viability: 0.198
